Patent publication US20230398130A1, “METHODS AND COMPOSITIONS FOR DIFFERENTIATING STEM CELLS” (Massachusetts Institute of Technology, priority 2020, published 2023)

Experiments:
ISC-enriched organoids [1] = assay: Primary screen, 384-well 2.5-D organoid differentiation (ENR+CD, 6 days): carbachol-induced lysozyme secretion (LYZ.S); assay type: cell-based, murine; settings: for Dose.FC.LYZ.S: FC vs plate median; for Z.LYZ.S: standard z score; for SSMD.LYZ.S: strictly standardized mean difference; for Dose.FC.LYZ.S (log 2 fold change, carbachol-induced lysozyme secretion): vs plate median
Text: (§1) High-throughput screening.

ISC-enriched organoids [2] = assay: Primary screen, 384-well 2.5-D organoid differentiation (ENR+CD, 6 days, Target Selective Inhibitor Library, vs whole-plate median): ATP (CellTiter-Glo 3D, CTG); settings: for Dose.FC.CTG: FC vs plate median; for SSMD.CTG: strictly standardized mean difference; for Dose.FC.CTG (log 2 fold change, ATP): vs plate median
ISC-enriched organoids [3] = assay: Primary screen, 384-well 2.5-D organoid differentiation (ENR+CD, 6 days): basal lysozyme secretion (LYZ.NS); assay type: cell-based, murine; settings: for Dose.FC.LYZ.NS: FC vs plate median; for SSMD.LYZ.NS: strictly standardized mean difference; for Dose.FC.LYZ.NS (log 2 fold change, basal lysozyme secretion): vs plate median
Text: as §1

[4] = primary screen, 1st of the 4 dose lines of the treatment (dose not given)
[5] = primary screen, 2nd of the 4 dose lines of the treatment (dose not given)
[6] = primary screen, 3rd of the 4 dose lines of the treatment (dose not given)
[7] = primary screen, 4th of the 4 dose lines of the treatment (dose not given)
[8] = Dose 0.08 uM, primary screen, standard z score
[9] = Dose 0.40 uM, primary screen, standard z score
[10] = Dose 2.00 uM, primary screen, standard z score
[11] = Dose 10.00 uM, primary screen, standard z score
[12] = Dose 0.08 uM, standard z score of FC
[13] = Dose 0.40 uM, standard z score of FC
[14] = Dose 2.00 uM, standard z score of FC
[15] = Dose 10.00 uM, standard z score of FC

SMILES: COC(=O)CCSCc1ccc(-c2onc(C)c2NC(=O)OC(C)c2ccccc2Cl)cc1 (stereo not drawn) [Ki16198]
- Dose.FC.LYZ.S (ISC-enriched organoids [1]; Dose 0.08 uM, primary screen): 0.027 log 2 fold change
- Dose.FC.LYZ.S (ISC-enriched organoids [1]; Dose 0.40 uM, primary screen): 0.031 log 2 fold change
- Dose.FC.LYZ.S (ISC-enriched organoids [1]; Dose 2.00 uM, primary screen): −0.015 log 2 fold change
- Dose.FC.LYZ.S (ISC-enriched organoids [1]; Dose 10.00 uM, primary screen): −0.037 log 2 fold change
- Z.LYZ.S (ISC-enriched organoids [1]; [4]): 0.176
- Z.LYZ.S (ISC-enriched organoids [1]; [5]): 0.204
- Z.LYZ.S (ISC-enriched organoids [1]; [6]): −0.095
- Z.LYZ.S (ISC-enriched organoids [1]; [7]): −0.239
- SSMD.LYZ.S (ISC-enriched organoids [1]; [4]): 0.136
- SSMD.LYZ.S (ISC-enriched organoids [1]; [5]): 0.231
- SSMD.LYZ.S (ISC-enriched organoids [1]; [6]): −0.105
- SSMD.LYZ.S (ISC-enriched organoids [1]; [7]): −0.262
- Dose.FC.CTG (ISC-enriched organoids [2]; Dose 0.08 uM, primary screen): −0.011 log 2 fold change
- Z.CTG (ISC-enriched organoids [2]; [8]): −0.026
- Dose.FC.CTG (ISC-enriched organoids [2]; Dose 0.40 uM, primary screen): −0.108 log 2 fold change
- Z.CTG (ISC-enriched organoids [2]; [9]): −0.258
- Dose.FC.CTG (ISC-enriched organoids [2]; Dose 2.00 uM, primary screen): −0.033 log 2 fold change
- Z.CTG (ISC-enriched organoids [2]; [10]): −0.078
- Dose.FC.CTG (ISC-enriched organoids [2]; Dose 10.00 uM, primary screen): 0.022 log 2 fold change
- Z.CTG (ISC-enriched organoids [2]; [11]): 0.052
- SSMD.CTG (ISC-enriched organoids [2]; [4]): −0.028
- SSMD.CTG (ISC-enriched organoids [2]; [5]): −0.359
- SSMD.CTG (ISC-enriched organoids [2]; [6]): −0.118
- SSMD.CTG (ISC-enriched organoids [2]; [7]): 0.073
- Dose.FC.LYZ.NS (ISC-enriched organoids [3]; Dose 0.08 uM, primary screen): 0.005 log 2 fold change
- Z.LYZ.NS (ISC-enriched organoids [3]; [8]): 0.044
- Dose.FC.LYZ.NS (ISC-enriched organoids [3]; Dose 0.40 uM, primary screen): −0.009 log 2 fold change
- Z.LYZ.NS (ISC-enriched organoids [3]; [9]): −0.076
- Dose.FC.LYZ.NS (ISC-enriched organoids [3]; Dose 2.00 uM, primary screen): 0.060 log 2 fold change
- Z.LYZ.NS (ISC-enriched organoids [3]; [10]): 0.519
- Dose.FC.LYZ.NS (ISC-enriched organoids [3]; Dose 10.00 uM, primary screen): −0.103 log 2 fold change
- Z.LYZ.NS (ISC-enriched organoids [3]; [11]): −0.899
- SSMD.LYZ.NS (ISC-enriched organoids [3]; [4]): 0.052
- SSMD.LYZ.NS (ISC-enriched organoids [3]; [5]): −0.083
- SSMD.LYZ.NS (ISC-enriched organoids [3]; [6]): 0.211
- SSMD.LYZ.NS (ISC-enriched organoids [3]; [7]): −0.914

SMILES: C=CCn1c(=O)c2cnc(Nc3ccc(N4CCN(C)CC4)cc3)nc2n1-c1cccc(C(C)(C)O)n1 [MK-1775]
- Z.LYZ.S (ISC-enriched organoids [1]; [4]): 0.424
- Z.LYZ.S (ISC-enriched organoids [1]; [5]): −1.404
- Z.LYZ.S (ISC-enriched organoids [1]; [6]): −1.345
- Z.LYZ.S (ISC-enriched organoids [1]; [7]): −1.643
- SSMD.LYZ.S (ISC-enriched organoids [1]; [4]): 0.440
- SSMD.LYZ.S (ISC-enriched organoids [1]; [5]): −1.378
- SSMD.LYZ.S (ISC-enriched organoids [1]; [6]): −1.357
- SSMD.LYZ.S (ISC-enriched organoids [1]; [7]): −1.331
- Z.CTG (ISC-enriched organoids [2]; [12]): 0.393
- Z.CTG (ISC-enriched organoids [2]; [13]): −1.074
- Z.CTG (ISC-enriched organoids [2]; [14]): −1.919
- Z.CTG (ISC-enriched organoids [2]; [15]): −2.451
- SSMD.CTG (ISC-enriched organoids [2]; [4]): 0.536
- SSMD.CTG (ISC-enriched organoids [2]; [5]): −1.242
- SSMD.CTG (ISC-enriched organoids [2]; [6]): −1.697
- SSMD.CTG (ISC-enriched organoids [2]; [7]): −1.818
- SSMD.LYZ.NS (ISC-enriched organoids [3]; [4]): 0.317
- SSMD.LYZ.NS (ISC-enriched organoids [3]; [5]): −1.150
- SSMD.LYZ.NS (ISC-enriched organoids [3]; [6]): −1.545
- SSMD.LYZ.NS (ISC-enriched organoids [3]; [7]): −0.993

SMILES: Nc1cccc(-c2cc3c(Oc4cccc(O)c4)ncnc3[nH]2)c1 [TWS119]
- Dose.FC.LYZ.S (log 2 fold change, carbachol-induced lysozyme secretion) (ISC-enriched organoids [1]; dose 0.08 uM): 0.207
- Dose.FC.LYZ.S (log 2 fold change, carbachol-induced lysozyme secretion) (ISC-enriched organoids [1]; dose 0.40 uM): 0.142
- Dose.FC.LYZ.S (log 2 fold change, carbachol-induced lysozyme secretion) (ISC-enriched organoids [1]; dose 2.00 uM): 0.044
- Dose.FC.LYZ.S (log 2 fold change, carbachol-induced lysozyme secretion) (ISC-enriched organoids [1]; dose 10.00 uM): −0.283
- Z.CTG (standard z score) (ISC-enriched organoids [2]; dose 0.08 uM): 0.784
- Dose.FC.CTG (log 2 fold change, ATP) (ISC-enriched organoids [2]; dose 0.08 uM): 0.328
- Z.CTG (standard z score) (ISC-enriched organoids [2]; dose 0.40 uM): 0.796
- Dose.FC.CTG (log 2 fold change, ATP) (ISC-enriched organoids [2]; dose 0.40 uM): 0.333
- Z.CTG (standard z score) (ISC-enriched organoids [2]; dose 2.00 uM): 0.169
- Dose.FC.CTG (log 2 fold change, ATP) (ISC-enriched organoids [2]; dose 2.00 uM): 0.071
- Z.CTG (standard z score) (ISC-enriched organoids [2]; dose 10.00 uM): −2.866
- Dose.FC.CTG (log 2 fold change, ATP) (ISC-enriched organoids [2]; dose 10.00 uM): −1.200
- Z.LYZ.NS (standard z score) (ISC-enriched organoids [3]; dose 0.08 uM): 0.820
- Dose.FC.LYZ.NS (log 2 fold change, basal lysozyme secretion) (ISC-enriched organoids [3]; dose 0.08 uM): 0.094
- Z.LYZ.NS (standard z score) (ISC-enriched organoids [3]; dose 0.40 uM): 0.327
- Dose.FC.LYZ.NS (log 2 fold change, basal lysozyme secretion) (ISC-enriched organoids [3]; dose 0.40 uM): 0.038
- Z.LYZ.NS (standard z score) (ISC-enriched organoids [3]; dose 2.00 uM): 0.304
- Dose.FC.LYZ.NS (log 2 fold change, basal lysozyme secretion) (ISC-enriched organoids [3]; dose 2.00 uM): 0.035
- Z.LYZ.NS (standard z score) (ISC-enriched organoids [3]; dose 10.00 uM): −2.027
- Dose.FC.LYZ.NS (log 2 fold change, basal lysozyme secretion) (ISC-enriched organoids [3]; dose 10.00 uM): −0.233

SMILES: CC1=C(C(=O)OC2CCCCC2)C(c2ccc([N+](=O)[O-])cc2)C2=C(CC(C)(C)CC2=O)N1 (stereo not drawn) [FLI-06]
- Dose.FC.LYZ.S (ISC-enriched organoids [1]; Dose 0.08 uM, ENR+CD, 6 days): 0.079 log 2 fold change
- Dose.FC.LYZ.S (ISC-enriched organoids [1]; Dose 0.40 uM, ENR+CD, 6 days): 0.010 log 2 fold change
- Dose.FC.LYZ.S (ISC-enriched organoids [1]; Dose 2.00 uM, ENR+CD, 6 days): −0.077 log 2 fold change
- Dose.FC.LYZ.S (ISC-enriched organoids [1]; Dose 10.00 uM, ENR+CD, 6 days): −0.170 log 2 fold change
- Dose.FC.CTG (ISC-enriched organoids [2]; Dose 0.08 uM, ENR+CD, 6 days): 0.089 log 2 fold change
- Z.CTG (ISC-enriched organoids [2]; [12]): 0.213
- Dose.FC.CTG (ISC-enriched organoids [2]; Dose 0.40 uM, ENR+CD, 6 days): 0.095 log 2 fold change
- Z.CTG (ISC-enriched organoids [2]; [13]): 0.226
- Dose.FC.CTG (ISC-enriched organoids [2]; Dose 2.00 uM, ENR+CD, 6 days): 0.076 log 2 fold change
- Z.CTG (ISC-enriched organoids [2]; [14]): 0.182
- Dose.FC.CTG (ISC-enriched organoids [2]; Dose 10.00 uM, ENR+CD, 6 days): −0.343 log 2 fold change
- Z.CTG (ISC-enriched organoids [2]; [15]): −0.819
- Dose.FC.LYZ.NS (ISC-enriched organoids [3]; Dose 0.08 uM, ENR+CD, 6 days): 0.050 log 2 fold change
- Z.LYZ.NS (ISC-enriched organoids [3]; [12]): 0.439
- Dose.FC.LYZ.NS (ISC-enriched organoids [3]; Dose 0.40 uM, ENR+CD, 6 days): −0.026 log 2 fold change
- Z.LYZ.NS (ISC-enriched organoids [3]; [13]): −0.230
- Dose.FC.LYZ.NS (ISC-enriched organoids [3]; Dose 2.00 uM, ENR+CD, 6 days): −0.054 log 2 fold change
- Z.LYZ.NS (ISC-enriched organoids [3]; [14]): −0.466
- Dose.FC.LYZ.NS (ISC-enriched organoids [3]; Dose 10.00 uM, ENR+CD, 6 days): −0.140 log 2 fold change
- Z.LYZ.NS (ISC-enriched organoids [3]; [15]): −1.216
